Measurements published in BigSolDB 2.1.

CO[C@H]1C[C@@H]2CC[C@@H](C)[C@@](O)(O2)C(=O)C(=O)N2CCCC[C@H]2C(=O)O[C@H]([C@H](C)C[C@@H]2CC[C@@H](O)[C@H](OC)C2)CC(=O)[C@H](C)/C=C(\C)[C@@H](O)[C@@H](OC)C(=O)[C@H](C)C[C@H](C)/C=C/C=C/C=C/1C
solubility (mole fraction)
Settings | in acetone | in chloroform | in dichloromethane | in ethanol | in methanol
295 K | 0.00316 | 0.00272 | 0.0019 | 0.00137 | 0.00072
300 K | 0.00321 | 0.00289 | 0.00201 | 0.00143 | 0.00088
305 K | 0.00343 | 0.00311 | 0.0022 | 0.00163 | 0.00107
310 K | 0.00388 | 0.00325 | 0.00246 | 0.00184 | 0.00123
315 K | 0.00433 | 0.00346 | 0.00271 | 0.00197 | 0.00143
320 K | 0.0047 | 0.00369 | 0.00279 | 0.0021 | 0.00146
325 K | 0.00487 | 0.00386 | 0.00306 | 0.00237 | 0.00163
330 K | 0.00511 | 0.00413 | 0.00333 | 0.00259 | 0.00171
335 K | 0.00545 | 0.00437 | 0.00351 | 0.00275 | 0.00183
340 K | 0.00627 | 0.00458 | 0.00397 | 0.00291 | 0.00188
345 K | 0.00721 | 0.00495 | 0.00433 | 0.00317 | 0.00205
